This is an account of results in publication PMC4264192, “Synthesis and Biological Evaluation of 2-Thioxopyrimidin-4(1H)-one Derivatives as Potential Non-Nucleoside HIV-1 Reverse Transcriptase Inhibitors” (International Journal of Molecular Sciences, 2014).

In data set [1] the test system is HIV-1. In words: Inhibition of HIV-1 replication in MT-4 cells (HIV-1 antigen ELISA or MTT). In kind it is cell-based, human immunodeficiency virus type 1. The settings on record: for IC50: Human immunodeficiency virus 1, MT4, 144 h, read-out: IC50, 50% inhibitory concentration (anti-HIV-1 activity); for Selectivity index (SI), CC50/IC50 / activity against HIV-1 replication (in words): MT-4 cells; for Selectivity index (SI), CC50/IC50: ratio CC50/IC50; for activity against HIV-1 replication (in words): less than 30% reduction of HIV expression considered without biological activity; for EC50: Human immunodeficiency virus 1, MT4, read-out: EC50 against wild-type HIV-1. The text has this:
Compounds mediating less than 30% reduction of HIV expression were considered without biological activity.

A short description of data set [2]: Cytotoxic effect in uninfected MT-4 cultures. The settings on record: human, uninfected MT-4 cells; read-out: CC50, 50% cytotoxic concentration. In kind it is cell-based.
Where [3] appears, read: HIV-1 in MT-4 cells, six days, 0.005 MOI.

Like-named read-outs stand apart in the source and are kept apart here.

The compound `C=CCc1c(Cc2ccccc2)nc(SCCCCCC)[nH]c1=O` [Compound 2d, 5-Allyl-6-benzyl-2-(hexylthio)pyrimidin-4(3H)-one] gave a melting point of 153 to 155 °C. Also, the IC50 in data set [1] turned out to be 7 µM. For the same compound, the CC50 at 6 days in data set [2] was 35 µM.
`CCOCn1c(Cc2ccccc2)c(C(C)C)c(=O)[nH]c1=O` [MKC-442, 6-benzyl-1-(ethoxymethyl)-5-isopropylpyrimidine-2,4-dione, reference compound]: the IC50 in data set [1] (setting [3]) was determined as 0.005 µM. Besides, the “Selectivity index (SI), CC50/IC50” value in data set [1] is 28,000. Further, the CC50 at 6 days in data set [2] is 141 µM.
`C=CCc1c(Cc2ccccc2)nc(SC2CCCCC2)[nH]c1=S` [Compound 8, 5-Allyl-6-benzyl-2-(cyclohexylthio)pyrimidine-4(3H)-thione]: the melting point lay within 143 to 145 °C. Besides, in data set [1] (setting [3]), the IC50 turned out to be 3.9 µM. Besides, the “Selectivity index (SI), CC50/IC50” value in data set [1] is listed as above 25. Moreover, in data set [2], the CC50 at 6 days is above 100 µM.
`C=CCc1c(Cc2ccccc2)nc(SCCOCOC)[nH]c1=O` [Compound 2f, 5-Allyl-6-benzyl-2-(2-(methoxymethoxy)ethylthio)pyrimidin-4(3H)-one] had a melting point of 188 to 190 °C.
`C=CCc1c(Cc2ccccc2)nc(SCC(C)C)[nH]c1=O` [Compound 2h, 5-Allyl-6-benzyl-2-(isobutylthio)pyrimidin-4(3H)-one] registered a melting point of 134 to 136 °C. Besides, the IC50 in data set [1] (setting [3]) turned out to be 1 µM. Also, the “Selectivity index (SI), CC50/IC50” value in data set [1] was above 100. Besides, the CC50 at 6 days in data set [2] is above 100 µM.
In the same order, the values of `C=CCc1c(Cc2ccccc2)nc(SCC(=O)OC)[nH]c1=O` [Compound 3a, 5-Allyl-6-benzyl-2-(methylacetatethio)pyrimidin-4(3H)-one] are 117 to 119 °C, 35 µM, above 2 and above 100 µM.
With `C=CCc1c(Cc2ccccc2)nc(SCC(CC)CC)[nH]c1=O` [Compound 2i, 5-Allyl-6-benzyl-2-(2-ethylbutylthio)pyrimidin-4(3H)-one], the melting point was in the range of 141 to 143 °C.
For the compound `C=CCc1c(Cc2ccccc2)nc(SCSC)[nH]c1=O` [Compound 11a, 2-((Methylthio)methylthio)-5-allyl-6-benzylpyrimidin-4(3H)-one], the melting point lay within 218 to 220 °C. Also, the IC50 in data set [1] (setting [3]) was 3.16 µM. Moreover, in data set [1], the “Selectivity index (SI), CC50/IC50” value was above 31. Moreover, the CC50 at 6 days in data set [2] is above 100 µM.
On to `C=CCc1c(Cc2ccccc2)nc(SCC(=O)NC)[nH]c1=O` [Compound 4, 2-(5-Allyl-4-benzyl-1,6-dihydro-6-oxopyrimidin-2-ylthio)-N-methylacetamide], for which the “activity against HIV-1 replication (in words)” value (shortened to “activity”) in data set [1] is “inactive”.
`C=CCc1c(Cc2ccccc2)nc(SCC(=O)OCC)[nH]c1=O` [Compound 3b, 5-Allyl-6-benzyl-2-(ethylacetatethio)pyrimidin-4(3H)-one] yielded a melting point of 118 to 120 °C. Further, in data set [1], the “activity” value is “inactive”.
Turning to `C=CCc1c(Cc2ccccc2)nc(SC)[nH]c1=O` [Compound 2a, 5-Allyl 6-(benzyl)-2-(methylthio)pyrimidin-4(3H)-one], the melting point was 214 to 216 °C. Also, the IC50 in data set [1] (setting [3]) was 26.8 µM. In addition, in data set [1], the “Selectivity index (SI), CC50/IC50” value was above 3. The CC50 at 6 days in data set [2] was above 100 µM.
As for `C=CCc1c(Cc2ccccc2)nc(SC2CCCC2)[nH]c1=O` [Compound 2j, 5-Allyl 6-benzyl-2-(cyclopentylthio)pyrimidin-4(3H)-one], in data set [1] (setting [3]), the IC50 is 2.6 µM. Moreover, the EC50 in data set [1] stood at 2.6 µM. In addition, the CC50 at 6 days in data set [2] was above 100 µM.
Regarding `Cc1cn([C@H]2C[C@H](N=[N+]=[N-])[C@@H](CO)O2)c(=O)[nH]c1=O` [AZT, azidothymidine, reference compound], the IC50 in data set [1] (setting [3]) came out at 0.04 µM. In data set [1], the “Selectivity index (SI), CC50/IC50” value is 1,300. In addition, the CC50 at 6 days in data set [2] was 52 µM.
Compound `C=CCc1c(Cc2ccccc2)nc(SCCCO)[nH]c1=O` [Compound 11c, 2-(3-Hydroxypropylthio)-5-allyl-6-benzylpyrimidin-4(3H)-one] came in with a melting point of 123 to 125 °C. Further, the IC50 in data set [1] (setting [3]) came out at 0.32 µM. Further, in data set [1], the EC50 was 0.32 µM and the “Selectivity index (SI), CC50/IC50” value is on record as above 312. For the same compound, the CC50 at 6 days in data set [2] is above 100 µM.
Compound `C=CCc1c(Cc2ccccc2)n2c(nc1=O)SCC2OCC` (stereo not shown) [Compound 10, 6-Allyl-5-benzyl-3-ethoxy-2,3-dihydrothiazolo[3,2-a]pyrimidin-7-one] came in with a melting point of 162 to 164 °C.
For `C=CCc1c(Cc2ccccc2)nc(SCCCBr)[nH]c1=O` [Compound 2c, 2-(3-Bromopropylthio)-5-allyl-6-benzylpyrimidin-4(3H)-one], the melting point fell in the range of 138 to 140 °C. For the same compound, the “activity” value in data set [1] is “inactive”.
Take `C=CCc1c(Cc2ccccc2)nc(SCCO)[nH]c1=O` [Compound 2b, 2-(2-Hydroxyethylthio)-5-allyl-6-benzylpyrimidin-4(3H)-one]: the melting point lay in the range of 164 to 166 °C.
For `C=CCc1c(Cc2ccccc2)nc(SCC(OCC)OCC)[nH]c1=O` [Compound 9, 5-Allyl 6-benzyl-2-(2,2-diethoxyethylthio)pyrimidin-4(3H)-one], the melting point lay in the range of 156 to 158 °C. Further, the “activity” value in data set [1] was “inactive”.
Regarding `C=CCc1c(Cc2ccccc2)nc(SCCOCOCCBr)[nH]c1=O` [Compound 2g, 5-Allyl-6-benzyl-2-(2-((2-bromoethoxy)methoxy)ethylthio)pyrimidin-4(3H)-one], the melting point lay within 192 to 194 °C.
Compound `C=CCSc1nc(Cc2ccccc2)c(CC=C)c(=O)[nH]1` [Compound 2e, 5-Allyl 6-benzyl-2-(allylthio)pyrimidin-4(3H)-one] gave a melting point of 114 to 116 °C. For the same compound, in data set [1], the IC50 is 2.5 µM and the EC50 came to 2.5 µM. The CC50 at 6 days in data set [2] was 25 µM.
With `C=CCc1c(Cc2ccccc2)nc(SC2CCOC2=O)[nH]c1=O` (stereo not shown) [Compound 2k, 5-Allyl-6-benzyl-2-(tetrahydro-2-oxofuran-3-ylthio)pyrimidin-4(3H)-one], the melting point was 153 to 155 °C. In addition, the “activity” value in data set [1] was “inactive”.
`C=CCc1c(Cc2ccccc2)nc(SC2CCCCC2)[nH]c1=O` [Compound 6, 5-Allyl 6-benzyl-2-(cyclohexylthio)pyrimidin-4(3H)-one] returned a melting point of 138 to 140 °C.
Consider `C=CCc1c(Cc2ccccc2)nc(SCOCC)[nH]c1=O` [Compound 11b, 5-Allyl-6-benzyl-2-(ethoxymethylthio)pyrimidin-4(3H)-one], for which the melting point was 142 to 144 °C.
On the same count and under the same terms, under `O=c1[nH]c([S+]([O-])C2CCCCC2)nc(Cc2ccccc2)c1CC1CO1` (stereo not shown) [Compound 7, 6-Benzyl-2-(cyclohexylsulfinyl)-5-((oxiran-2-yl)methyl)pyrimidin-4(3H)-one] stands 190 to 192 °C.
